According to patent publication US20140093641A1, “LUBRICANT COMPOSITIONS CONTAINING FLUOROOXIRANES” (3MM INNOVATIVE PROPERTIES COMPANY, priority 2011, published 2014):

What was measured:
[1] = test system: rats; assay: Short-term inhalation test (acute toxicity); type: in vivo; settings: rats exposed for four hours at 50,000 ppm in air
[2] = Solubility testing of lubricants, additives and impurities in deposition solvents; type: physicochemical
Method: A disposable glass vial was placed on a four-place balance and the mass (MV) recorded. The balance with the glass vial was tared and deposition solvent was added (varying from 1 g to 5 g) and the mass (MS) was recorded. The balance with the deposition solvent in the glass vial was tared again. The lubricant was added in a dropwise fashion using a disposable plastic pipet and the mass (ML) recorded. The glass vial was then mixed by hand for 10 seconds to 30 seconds and the solution clarity was visually observed and recorded. If the solution was hazy, the lubricant was considered to have exceeded the solubility limit of the deposition solvent. If the solution was clear, additional drops of lubricant were added to the glass vial, the mass (ML) was recorded, the glass vial was shaken, and the solution clarity was observed. This process was continued until a hazy solution was observed or more than 10% w/w (weight of lubricant to combined weight of lubricant and deposition solvent) was reached. After a hazy solution or more than 10% w/w was reached, the glass vial with the solution was removed from the balance. The balance was tared and the final mass (MF) of the glass vial with deposition solvent and lubricant was measured and recorded. To account for the evaporative losses of the deposition solvent during the experiment, the mass of the vial and the mass of the lubricant added were subtracted from the total mass of the vial with the deposition solvent and lubricant to determine the final mass of deposition solvent (MS*) in the vial (i.e., MS*=MF−MV−ML). Solubility of the lubricant in deposition solvents was calculated as ML/(ML+MS*) and reported in % w/w (weight/weight).
If the endpoint was not clearly observed, the solubility experiment was repeated. Where a range is reported for solubility, the lower number is the highest soluble value and the higher number is the lowest insoluble value.

## FC(F)(F)C1(F)OC1(F)C(F)(C(F)(F)F)C(F)(F)F (stereo not drawn) [C6 Oxirane, 2,3-difluoro-2-(1,2,2,2-tetrafluoro-1-trifluoromethyl-ethyl)-3-trifluoromethyl-oxirane]
[1]
  acute toxicity, short-term inhalation: low acute toxicity

## CCCCCCCCOC(=O)c1ccccc1C(=O)OCCCCCCCC [DOP, Dioctylphthlate]
[2]
  Solubility in C6 Oxirane: <0.9%
  Solubility in C9 Oxirane: <1.1%
  Solubility in NOVEC 7100: 5.1%
  Solubility in PF-5060DL: <0.005%
  Solubility in VERTREL XF: >30%
